Patent US8962596B2 (Array BioPharma Inc., priority 2010, dated 2015)

Legend:
Assay type in all cases: biochemical
Human Tyk2 kinase domain = target: T1, Human Tyk2 kinase domain (Homo sapiens, UniProt P29597); assay: Tyk2 Inhibition Assay (Omnia kinase fluorescence peptide substrate assay); settings: averaged IC50 ranges; assay of Example A; 10 μM (Km app) or 1 mM ATP, 2 nM Tyk2
T1 construct: comprising amino acids 886 to 1187 with 10 additional histidine residues; 10xHis (histidine tag) (C, cleaved yes); made in house
T1 sequence (P29597 886-1187): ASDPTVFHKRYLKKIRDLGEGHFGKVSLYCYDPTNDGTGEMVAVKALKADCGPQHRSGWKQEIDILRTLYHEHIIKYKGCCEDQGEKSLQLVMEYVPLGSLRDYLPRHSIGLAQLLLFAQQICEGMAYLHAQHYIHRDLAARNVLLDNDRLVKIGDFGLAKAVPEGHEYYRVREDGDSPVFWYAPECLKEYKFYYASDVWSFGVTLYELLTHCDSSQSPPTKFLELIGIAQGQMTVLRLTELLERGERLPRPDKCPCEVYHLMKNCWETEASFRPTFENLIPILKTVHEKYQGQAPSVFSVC
Outline: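 2 nM His-tag-cleaved kinase domain (aa 886–1187) with 8 μM Omnia Y12 peptide, 10 μM (Km app) or 1 mM ATP, pH 7.4 HEPES/10 mM MgCl2, 2% DMSO. Fluorescence (ex 360/em 485 nm) every 50 s for 45 min; IC50 from 4-parameter fit of POC, top dose 10 μM.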

JAK3 = target: T2, JAK3 (Homo sapiens, UniProt P52333); assay: JAK3 Inhibition Assay (Omnia kinase fluorescence peptide substrate assay); settings: averaged IC50 ranges; assay of Example D; 10 μM (Km app) or 1 mM ATP, 2.5 nM JAK3
T2 construct: purchased Invitrogen Corporation, Carlsbad, Calif; PV4080
T2 sequence (P52333 1-1124): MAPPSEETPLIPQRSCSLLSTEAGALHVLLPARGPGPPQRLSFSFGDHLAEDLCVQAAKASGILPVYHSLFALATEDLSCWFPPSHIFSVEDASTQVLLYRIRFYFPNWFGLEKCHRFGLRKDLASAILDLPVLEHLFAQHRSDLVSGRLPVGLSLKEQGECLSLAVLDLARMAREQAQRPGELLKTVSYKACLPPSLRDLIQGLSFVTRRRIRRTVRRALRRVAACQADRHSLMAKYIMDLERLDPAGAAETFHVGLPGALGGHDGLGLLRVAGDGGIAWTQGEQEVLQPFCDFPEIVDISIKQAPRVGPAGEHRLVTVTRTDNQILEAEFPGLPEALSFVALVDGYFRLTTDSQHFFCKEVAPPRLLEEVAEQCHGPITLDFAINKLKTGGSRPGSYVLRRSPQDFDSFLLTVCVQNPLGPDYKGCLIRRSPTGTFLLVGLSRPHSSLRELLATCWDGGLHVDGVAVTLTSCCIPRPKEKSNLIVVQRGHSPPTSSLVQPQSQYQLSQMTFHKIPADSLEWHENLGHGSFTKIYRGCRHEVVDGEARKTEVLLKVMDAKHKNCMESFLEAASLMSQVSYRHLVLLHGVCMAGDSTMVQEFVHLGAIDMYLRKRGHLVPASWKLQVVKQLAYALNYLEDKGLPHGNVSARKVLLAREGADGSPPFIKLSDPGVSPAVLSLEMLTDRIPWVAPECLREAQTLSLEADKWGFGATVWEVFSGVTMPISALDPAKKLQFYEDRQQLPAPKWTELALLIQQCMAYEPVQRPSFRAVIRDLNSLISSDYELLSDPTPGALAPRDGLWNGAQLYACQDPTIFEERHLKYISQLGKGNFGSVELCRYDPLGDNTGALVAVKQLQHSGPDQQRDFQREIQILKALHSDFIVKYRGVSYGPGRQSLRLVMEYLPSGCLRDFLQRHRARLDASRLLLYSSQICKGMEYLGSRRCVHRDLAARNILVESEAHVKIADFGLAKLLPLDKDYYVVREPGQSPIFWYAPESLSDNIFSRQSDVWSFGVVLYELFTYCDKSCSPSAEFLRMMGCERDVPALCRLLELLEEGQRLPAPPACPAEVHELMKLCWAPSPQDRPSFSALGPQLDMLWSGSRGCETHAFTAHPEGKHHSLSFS
Outline: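 Kinase at 2.5 nM with 10 µM Omnia Y7 peptide and 10 µM (Km app) or 1 mM ATP in 25 mM HEPES pH 7.4, 10 mM MgCl2, 1 mM DTT, 0.01% Triton X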

JAK1 = target: T3, JAK1 (Homo sapiens, UniProt P23458); assay: JAK1 Inhibition Assay (Omnia kinase fluorescence peptide substrate assay); settings: averaged IC50 ranges; assay of Example B; 40 μM (Km app) or 1 mM ATP, 15 nM JAK1
T3 construct: purchased Invitrogen Corporation, Carlsbad, Calif; PV4775
T3 sequence (P23458 whole entry): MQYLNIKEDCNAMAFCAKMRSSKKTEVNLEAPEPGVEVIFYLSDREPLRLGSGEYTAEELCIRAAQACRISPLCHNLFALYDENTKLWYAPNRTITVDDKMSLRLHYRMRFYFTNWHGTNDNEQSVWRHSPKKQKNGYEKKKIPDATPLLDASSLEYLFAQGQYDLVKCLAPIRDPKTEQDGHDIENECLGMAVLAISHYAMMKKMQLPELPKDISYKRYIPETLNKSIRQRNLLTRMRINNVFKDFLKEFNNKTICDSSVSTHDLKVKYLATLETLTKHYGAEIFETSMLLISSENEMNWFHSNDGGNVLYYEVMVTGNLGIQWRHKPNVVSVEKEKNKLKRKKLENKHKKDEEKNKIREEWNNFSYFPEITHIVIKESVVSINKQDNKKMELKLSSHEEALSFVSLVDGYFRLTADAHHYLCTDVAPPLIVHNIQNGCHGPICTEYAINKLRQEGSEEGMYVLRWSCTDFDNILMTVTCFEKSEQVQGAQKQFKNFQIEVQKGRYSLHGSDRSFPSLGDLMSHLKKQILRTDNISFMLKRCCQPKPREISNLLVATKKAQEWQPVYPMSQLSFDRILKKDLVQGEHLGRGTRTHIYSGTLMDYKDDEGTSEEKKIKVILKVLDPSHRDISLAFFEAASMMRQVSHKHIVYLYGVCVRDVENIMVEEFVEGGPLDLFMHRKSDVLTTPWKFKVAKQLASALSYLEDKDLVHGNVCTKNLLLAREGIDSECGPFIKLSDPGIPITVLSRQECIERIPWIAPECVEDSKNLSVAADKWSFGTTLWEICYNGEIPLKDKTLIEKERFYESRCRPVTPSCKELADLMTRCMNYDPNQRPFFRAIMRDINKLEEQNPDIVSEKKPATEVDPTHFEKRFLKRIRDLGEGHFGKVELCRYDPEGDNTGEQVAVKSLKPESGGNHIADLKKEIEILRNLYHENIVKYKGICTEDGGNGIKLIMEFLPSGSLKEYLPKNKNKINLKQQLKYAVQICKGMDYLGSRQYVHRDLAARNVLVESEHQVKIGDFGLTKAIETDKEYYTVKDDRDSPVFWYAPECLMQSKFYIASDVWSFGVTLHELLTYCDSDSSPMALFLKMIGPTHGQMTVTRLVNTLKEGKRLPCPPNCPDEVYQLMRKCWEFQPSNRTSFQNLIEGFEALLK

JAK2 = target: T4, JAK2 (Homo sapiens, UniProt O60674); assay: JAK2 Inhibition Assay (Omnia kinase fluorescence peptide substrate assay); settings: averaged IC50 ranges; assay of Example C; 25 μM (Km app) or 1 mM ATP, 5 nM JAK2
T4 construct: purchased Invitrogen Corporation, Carlsbad, Calif; PV4288
T4 sequence (O60674 whole entry): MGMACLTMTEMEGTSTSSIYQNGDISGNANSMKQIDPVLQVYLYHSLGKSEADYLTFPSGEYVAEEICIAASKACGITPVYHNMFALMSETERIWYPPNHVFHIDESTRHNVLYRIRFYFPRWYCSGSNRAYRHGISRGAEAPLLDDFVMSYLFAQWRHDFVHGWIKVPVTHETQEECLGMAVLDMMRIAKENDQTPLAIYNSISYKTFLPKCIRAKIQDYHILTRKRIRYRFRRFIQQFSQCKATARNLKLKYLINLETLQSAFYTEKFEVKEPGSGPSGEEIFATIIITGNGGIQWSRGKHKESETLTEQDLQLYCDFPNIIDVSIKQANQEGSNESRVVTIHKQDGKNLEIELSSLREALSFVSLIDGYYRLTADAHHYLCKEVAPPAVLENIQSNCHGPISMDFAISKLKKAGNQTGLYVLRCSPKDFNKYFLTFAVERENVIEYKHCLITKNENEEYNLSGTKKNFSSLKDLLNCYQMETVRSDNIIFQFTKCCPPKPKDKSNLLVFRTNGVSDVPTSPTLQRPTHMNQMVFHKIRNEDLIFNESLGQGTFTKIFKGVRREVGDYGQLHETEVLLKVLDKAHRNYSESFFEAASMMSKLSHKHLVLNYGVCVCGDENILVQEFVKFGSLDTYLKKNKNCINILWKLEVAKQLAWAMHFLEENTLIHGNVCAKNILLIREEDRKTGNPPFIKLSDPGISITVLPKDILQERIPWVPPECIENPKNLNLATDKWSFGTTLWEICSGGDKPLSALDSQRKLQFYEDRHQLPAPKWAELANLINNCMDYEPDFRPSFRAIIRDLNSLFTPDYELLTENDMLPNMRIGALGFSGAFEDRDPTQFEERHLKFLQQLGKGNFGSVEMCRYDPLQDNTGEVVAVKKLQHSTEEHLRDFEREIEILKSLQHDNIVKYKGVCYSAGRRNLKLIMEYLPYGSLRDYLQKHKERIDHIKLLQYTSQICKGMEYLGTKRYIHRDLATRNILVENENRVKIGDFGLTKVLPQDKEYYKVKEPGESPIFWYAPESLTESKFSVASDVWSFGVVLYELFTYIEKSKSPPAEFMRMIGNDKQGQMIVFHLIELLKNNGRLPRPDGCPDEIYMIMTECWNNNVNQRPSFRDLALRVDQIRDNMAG
Outline: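 5 nM JAK2 phosphorylated 10 μM Omnia Y7 peptide with ATP at 25 μM (Km app) or 1 mM, in 25 mM HEPES pH 7.4, 10 mM MgCl2, 0.01% Triton X-100, 1 mM DTT, 2% DMSO. Fluorescence (360/485 nm) was read every 50 s for 45 min. 10-point 3-fold series from 10 μM; POC versus uninhibited and background controls, 4-parameter logistic IC50.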

| Compound | IC50 (Human Tyk2 kinase domain) [nM] | IC50 (JAK3) [nM] | IC50 (JAK1) [nM] | IC50 (JAK2) [nM] |
| --- | --- | --- | --- | --- |
| CC(=O)N1CCC(C(CC#N)n2cc(-c3nc(-c4cnn(C)c4)cc4nccn34)cn2)CC1 (stereo not shown) [Example 27, 3-(1-acetylpiperidin-4-yl)-3-(4-(7-(1-methyl-1H-pyrazol-4-yl)imidazo[1,2-c]pyrimidin-5-yl)-1H-pyrazol-1-yl)propanenitrile] | 100 to 1000 | > 1000 | 100 to 1000 | 100 to 1000 |
| Cn1cc(-c2cc3ncc(Cl)n3c(-c3cnn(C4(CC#N)CN(CC(F)(F)F)C4)c3)n2)cn1 [Example 90, 2-(3-(4-(3-Chloro-7-(1-methyl-1H-pyrazol-4-yl)imidazo[1,2-c]pyrimidin-5-yl)-1H-pyrazol-1-yl)-1-(2,2,2-trifluoroethyl)azetidin-3-yl)acetonitrile] | < 10 | 100 to 1000 | 100 to 1000 | 10 to 100 |
| Cn1cc(-c2cc3nccn3c(-c3ccn(C4(CC#N)CN(CC(F)(F)F)C4)n3)n2)ccc1=O [Example 145, 2-(3-(3-(7-(1-methyl-6-oxo-1,6-dihydropyridin-3-yl)imidazo[1,2-c]pyrimidin-5-yl)-1H-pyrazol-1-yl)-1-(2,2,2-trifluoroethyl)azetidin-3-yl)acetonitrile] | < 10 | > 1000 | 100 to 1000 | 10 to 100 |
| CC(C)n1cc(-c2cc3nccn3c(-c3cnn(C4(CC#N)CN(S(=O)(=O)C(F)(F)F)C4)c3)n2)cn1 [Example 101, 2-(3-(4-(7-(1-Isopropyl-1H-pyrazol-4-yl)imidazo[1,2-c]pyrimidin-5-yl)-1H-pyrazol-1-yl)-1-(trifluoromethylsulfonyl)azetidine-3-yl)acetonitrile] | < 10 | 100 to 1000 | < 10 | < 10 |
| CN1CCC(c2ccc(-c3cc4nccn4c(-c4cnn(C(CC#N)C5CCCC5)c4)n3)cc2)CC1 (single isomer, unassigned) [Example 112, 3-cyclopentyl-3-(4-(7-(4-(1-methylpiperidin-4-yl)phenyl)imidazo[1,2-c]pyrimidin-5-yl)-1H-pyrazol-1-yl)propanenitrile] | < 10 | 100 to 1000 | 10 to 100 | 10 to 100 |
| N#CCC(C1CC1)n1cc(-c2nc(-c3cnn(Cc4cccnc4)c3)cc3nccn23)cn1 (stereo not shown) [Example 35, 3-cyclopropyl-3-(4-(7-(1-(pyridin-3-ylmethyl)-1H-pyrazol-4-yl)imidazo[1,2-c]pyrimidin-5-yl)-1H-pyrazol-1-yl)propanenitrile] | < 10 | 100 to 1000 | 100 to 1000 | 10 to 100 |
| N#CCC(C1CC1)n1cc(-c2nc(C(=O)Nc3ccccn3)cc3nccn23)cn1 (stereo not shown) [Example 125, 5-(1-(2-cyano-1-cyclopropylethyl)-1H-pyrazol-4-yl)-N-(pyridin-2-yl)imidazo[1,2-c]pyrimidine-7-carboxamide] | 100 to 1000 | > 1000 | 100 to 1000 | > 1000 |
| Cn1cc(-c2cc3nccn3c(-c3ccn(C4(CC#N)CN(C(=O)OC(C)(C)C)C4)n3)n2)cn1 [Example 129, Tert-butyl 3-(cyanomethyl)-3-(3-(7-(1-methyl-1H-pyrazol-4-yl)imidazo[1,2-c]pyrimidin-5-yl)-1H-pyrazol-1-yl)azetidine-1-carboxylate] | 100 to 1000 | > 1000 | > 1000 | > 1000 |
| CN1CCN(c2ccc(-c3cc4nccn4c(-c4cnn(C(CC#N)C5CC5)c4)n3)cc2)CC1 (stereo not shown) [Example 59, 3-Cyclopropyl-3-(4-(7-(4-(4-methylpiperazin-1-yl)phenyl)imidazo[1,2-c]pyrimidin-5-yl)-1H-pyrazol-1-yl)propanenitrile] | < 10 | 100 to 1000 | 10 to 100 | 10 to 100 |
| C[Si](C)(C)CCOCn1cc(-c2cc3nccn3c(-c3cnn(C(CC#N)C4CC4)c3)n2)cn1 (stereo not shown) [Example 32, 3-cyclopropyl-3-(4-(7-(1-((2-(trimethylsilyl)ethoxy)methyl)-1H-pyrazol-4-yl)imidazo[1,2-c]pyrimidin-5-yl)-1H-pyrazol-1-yl)propanenitrile] | 10 to 100 | 100 to 1000 | 100 to 1000 | 10 to 100 |
| CN1CCC(c2ccc(-c3cc4nccn4c(-c4cnn(C(CC#N)C5CCCC5)c4)n3)cc2)CC1 (stereo not shown) [Example 110, 3-Cyclopentyl-3-(4-(7-(4-(1-methylpiperidin-4-yl)phenyl)imidazo[1,2-c]pyrimidin-5-yl)-1H-pyrazol-1-yl)propanenitrile] | < 10 | 100 to 1000 | 10 to 100 | 10 to 100 |
| CC(C)OCCn1cc(-c2cc3nccn3c(-c3cnn(C(CC#N)C4CC4)c3)n2)cn1 (stereo not shown) [Example 41, 3-cyclopropyl-3-(4-(7-(1-(2-isopropoxyethyl)-1H-pyrazol-4-yl)imidazo[1,2-c]pyrimidin-5-yl)-1H-pyrazol-1-yl]propanenitrile] | 10 to 100 | > 1000 | 100 to 1000 | 10 to 100 |
| Cn1cc(-c2cc3nccn3c(-c3cnn(C(CC#N)C(C)(C)C)c3)n2)cn1 (stereo not shown) [Example 18, 4,4-dimethyl-3-(4-(7-(1-methyl-1H-pyrazol-4-yl)imidazo[1,2-c]pyrimidin-5-yl)-1H-pyrazol-1-yl)pentanenitrile] | 10 to 100 | > 1000 | 100 to 1000 | 100 to 1000 |
| Cn1cc(-c2cc3nccn3c(-c3cnn(C(CC#N)c4ccc(Cl)cc4)c3)n2)cn1 (stereo not shown) [Example 14, 3-(4-chlorophenyl)-3-(4-(7-(1-methyl-1H-pyrazol-4-yl)imidazo[1,2-c]pyrimidin-5-yl)-1H-pyrazol-1-yl)propanenitrile] | 10 to 100 | 100 to 1000 | 10 to 100 | 10 to 100 |
| Cn1cc(-c2cc3nccn3c(-c3cnn(C(CC#N)C4CC4(F)F)c3)n2)cn1 (mixture of isomers) [Example 147, 3-(2,2-difluorocyclopropyl)-3-(4-(7-(1-methyl-1H-pyrazol-4-yl)imidazo[1,2-c]pyrimidin-5-yl)-1H-pyrazol-1-yl)propanenitrile] | < 10 | 100 to 1000 | 10 to 100 | 10 to 100 |
| Cc1ncc(-c2cc3nccn3c(-c3cnn(C4(CC#N)CN(S(=O)(=O)C5CC5)C4)c3)n2)s1 [Example 140, 2-(1-(cyclopropylsulfonyl)-3-(4-(7-(2-methylthiazol-5-yl)imidazo[1,2-c]pyrimidin-5-yl)-1H-pyrazol-1-yl)azetidin-3-yl)acetonitrile] | < 10 | > 1000 | 10 to 100 | 10 to 100 |
